Common to all, as to type: in vivo, wistar rats
For test [1], the system named is Collagen-I. Kind of test: Bleomycin induced lung fibrosis in rats: collagen 1 levels. Particulars: iso-garcinol 10 mg/kg p.o., octahydrocurcumin 150 mg/kg, alone and combined; normal control 64.25 ± 4.98, fibrosis control 102.43 ± 3.70. On the procedure:
(§1) After overnight fasting, the wistar rats were anesthetized (60 mg/kg ketamine HCl and 5 mg/kg xylazine) and a midline incision was made in the neck and the trachea was exposed. A tracheal cannula was inserted under direct visualization into the trachea. Pulmonary fibrosis was induced by intratracheal administration of single dose 0.1 mL of bleomycin (5 mg/kg in 0.9% NaCl). Treatment with the test material was given 5 min after administration of bleomycin for 14 consecutive days. After 14 days, BALF (bronchoalveolar lavage fluid) was obtained. Lung tissue was weighed to determine the lung index. Lung homogenate was stored at −80° C. for analysis of bio-markers. […]
(§2) The lung of the animals was removed and rinsed with ice-cold isotonic saline. […] The levels of HIF-1 alpha, TGF-β, IL-13, IL-1β, TNF-α, CCL-17, osteopontin and mucin in the lung tissue homogenate was determined using methods and protocols already reported in scientific literature.

The test system of test [2] is IL-13. Kind of test: Bleomycin induced lung fibrosis in rats: IL-13 in lung tissue homogenate. The note with it: iso-garcinol 10 mg/kg, octahydrocurcumin 150 mg/kg bodyweight, individually and in combination, vs pulmonary fibrosis control (FIG. 4). As to the method: as §1, §2
Test [3] has as its system osteopontin. Kind of test: Bleomycin induced lung fibrosis in rats: osteopontin in lung tissue homogenate. The note with it: iso-garcinol 10 mg/kg, octahydrocurcumin 150 mg/kg bodyweight, individually and in combination, vs pulmonary fibrosis control (FIG. 7). As to the method:
as §1, §2

Test [4] relates to TGF-β. Kind of test: Bleomycin induced lung fibrosis in rats: TGF-β in lung tissue homogenate. Particulars: iso-garcinol 10 mg/kg, octahydrocurcumin 150 mg/kg bodyweight, individually and in combination, 14 days; for reduction in TGF-β levels: compared to pulmonary fibrosis control group (1721 pg/ml); for TGF-β levels: control group 1721 pg/ml. On the procedure:
(§3) After overnight fasting, the wistar rats were anesthetized (60 mg/kg ketamine HCl and 5 mg/kg xylazine) and a midline incision was made in the neck and the trachea was exposed. A tracheal cannula was inserted under direct visualization into the trachea. Pulmonary fibrosis was induced by intratracheal administration of single dose 0.1 mL of bleomycin (5 mg/kg in 0.9% NaCl). Treatment with the test material was given 5 min after administration of bleomycin for 14 consecutive days. After 14 days, BALF (bronchoalveolar lavage fluid) was obtained. Lung tissue was weighed to determine the lung index. Lung homogenate was stored at −80° C. for analysis of bio-markers. (Yildirim A, Ersoy Y, Ercan F et al., “Phosphodiesterase-5 inhibition by sildenafil citrate in a rat model of bleomycin-induced lung fibrosis,” Pulmonary Pharmacol Therap. […]; 23(3):215-221; Chen L, Wang T, Wang X et al., “Blockade of advanced glycation end product formation attenuates bleomycin-induced pulmonary fibrosis in rats,” Respiratory Res. 2009; 10:55; Nergiz et al., The Protective Effect of Naringin against Bleomycin-Induced Pulmonary Fibrosis in Wistar Rats. Pulmonary Med. 2016, 12 p, http://dx.doi.org/10.1155/2016/7601393)
(§4) The lung of the animals was removed and rinsed with ice-cold isotonic saline. To the tissues was added 4 ml/g tissue of extraction buffer containing 1 mM phenylmethylsulfonyl fluoride, 1 mg/ml aprotinin and 0.05% Tween 20 in phosphate buffered saline. Tissues were homogenized on ice with a polytron and the homogenate was centrifuged at 5000 g for 15 min. Aliquots of the supernatant were separated and used for biochemical analysis. Supernatants were stored at −80° C. until cytokine analysis (Pandey et al., Multifunctional neuroprotective effect of Withanone, a compound from Withania somnifera roots in alleviating cognitive dysfunction. Cytokine 102 (2018) 211-221). The levels of HIF-1 alpha, TGF-β, IL-13, IL-1β, TNF-α, CCL-17, osteopontin and mucin in the lung tissue homogenate was determined using methods and protocols already reported in scientific literature.

Test [5] deals with CCL-17. Kind of test: Bleomycin induced lung fibrosis in rats: CCL-17 in lung tissue homogenate. The note with it: iso-garcinol 10 mg/kg, octahydrocurcumin 150 mg/kg bodyweight, individually and in combination, vs pulmonary fibrosis control (FIG. 6). On the procedure:
as §1, §2

The test system of test [6] is IL-1β. Kind of test: Bleomycin induced lung fibrosis in rats: IL-1β in lung tissue homogenate. The note with it: iso-garcinol 10 mg/kg, octahydrocurcumin 150 mg/kg bodyweight, individually and in combination, vs pulmonary fibrosis control (FIG. 5). As to the method: as §1, §2
Test [7] has as its system MUC 5B. Kind of test: Bleomycin induced lung fibrosis in rats: mucin 5B in lung tissue homogenate. The note with it: iso-garcinol 10 mg/kg, octahydrocurcumin 150 mg/kg bodyweight, individually and in combination, vs pulmonary fibrosis control (FIG. 8). As to the method:
as §1, §2

Test [8] deals with TNF-α. Kind of test: Bleomycin induced lung fibrosis in rats: TNF-α in lung tissue homogenate. The note with it: iso-garcinol 10 mg/kg, octahydrocurcumin 150 mg/kg bodyweight, individually and in combination, vs pulmonary fibrosis control (FIG. 5). On the procedure:
as §1, §2

For test [9], the system named is HIF-1α. Kind of test: Bleomycin induced lung fibrosis in rats: HIF-1 alpha in lung tissue homogenate. The note with it: 14 days; for reduction in HIF-α levels: compared to pulmonary fibrosis control group (138.6 pg/ml); for reduction in HIF-α levels / HIF-α levels: iso-garcinol 10 mg/kg, octahydrocurcumin 150 mg/kg bodyweight, individually and in combination; for HIF-α levels: control group 138.6 pg/ml. On the procedure:
as §3, §4
Different concentration of iso-garcinol (5, 10, 20 mg/kg bodyweight) and octahydrocurcumin were first administered to rats and the effect of the compounds in reducing hypoxia related HIF-α was evaluated. […] Thus, iso-garcinol at 10 mg/kg bodyweight and octahydrocurcumin at 150 mg/kg bodyweight was used for the further combination studies.

Test [10] can be described thus: Bleomycin induced lung fibrosis in rats: lung index. Particulars: (weight of the lung/bodyweight)×100; iso-garcinol 10 mg/kg p.o., octahydrocurcumin 150 mg/kg, alone and combined; normal control 0.75 ± 0.053, fibrosis control 1.39 ± 0.034. As to the method: as §3
Lung index calculated using the below formula
Lung Index=(weight of the lung/bodyweight)×100

Regarding `CC(C)=CC[C@H]1C[C@@]23C[C@@H](CC=C(C)C)C(C)(C)[C@@](CC=C(C)C)(C(=O)C(C(=O)c4ccc(O)c(O)c4)=C2OC1(C)C)C3=O` [iso-garcinol], the Collagen-I in [1] came out at 89.68 ± 3.23 µg/mL. Besides, the IL-13 levels result in [2] is “significantly reduced”. Also, the osteopontin levels result in test [3] is reported as “reduced”. For the same compound, in test [4], the “reduction in TGF-β levels” value amounted to 42.62% and the TGF-β levels amounted to 987.5 pg/mL. The CCL-17 levels entry in test [5] is reported as “reduced”. Also, in [6], the IL-1β levels result was “significantly reduced”. For the same compound, in test [7], the “MUC 5B levels” value is on record as “reduced”. Moreover, the TNF-α levels result in [8] is recorded as “significantly reduced”. Besides, in [9] (bleomycin rats, iso-garcinol 5, 10, 20 mg/kg bodyweight and different doses of octahydrocurcumin (FIG. 1)), the “reduction of hypoxia related HIF-α (determination of effective dose)” value was “better reduction of HIF-α at 10 mg/kg bodyweight”. Further, in [9], the “reduction in HIF-α levels” value was found to be 55% and the HIF-α levels is 61.9 pg/mL. For the same compound, the Lung index in test [10] is given as 1.19 ± 0.035.

Take `COc1cc(CCC(O)CC(O)CCc2ccc(O)c(OC)c2)ccc1O` (stereo not shown) [octahydrocurcumin]: in [1], the Collagen-I is 95.56 ± 4.90 µg/mL. Also, in test [4], the “reduction in TGF-β levels” value was 28.62% and the TGF-β levels is 1228.4 pg/mL. Also, in test [9], the “reduction in HIF-α levels” value is recorded as 36.6% and the HIF-α levels was found to be 83.7 pg/mL. In addition, in test [10], the Lung index is 1.02 ± 0.045.
